In ChEMBL document CHEMBL4414544, “Dihydropyrimidine-2-thiones as Eg5 inhibitors and L-type calcium channel blockers: potential antitumour dual agents” (Medchemcomm, 2019):
The source made the active and inactive calls. The calls are words filed in the database; no cut-off is given here.

Assays:
Aorta [1] = assay: Vasodilating activity in Wistar rat aortic rings assessed as reduction in phenylephrine-induced contractions; type: functional, tissue-based
Aorta [2] = assay: Vasodilating activity in Wistar rat aortic rings assessed as reduction in phenylephrine-induced contractions relative to control; type: functional
Aorta [3] = assay: Vasodilating activity in Wistar rat aortic rings assessed as reduction in KCl-induced contractions; type: functional, tissue-based
Aorta [4] = assay: Vasodilating activity in Wistar rat aortic rings assessed as reduction in KCl-induced contractions relative to control; type: functional
MM1.S = assay: Antiproliferative activity against human MM1S cells incubated for 72 hrs by MTT assay; type: functional, cell-based
A549 = assay: Antiproliferative activity against human A549 cells incubated for 72 hrs by MTT assay; type: functional, cell-based; settings: A549, 72 h
HCT-116 = assay: Antiproliferative activity against human HCT116 cells incubated for 72 hrs by MTT assay; type: functional, cell-based; settings: HCT-116, 72 h
MCF7 = assay: Antiproliferative activity against human MCF7 cells incubated for 72 hrs by MTT assay; type: functional, cell-based; settings: MCF7, 72 h
[5] = target: T1, Kinesin-like protein KIF11 (Homo sapiens) (UniProt P52732); assay: Inhibition of Eg5 in human MCF7 cells assessed as increase in monopolar spindle formation at 100 uM incubated for 24 hrs by DAPI staining based confocal microscopic method; type: cell-based
T1 sequence (whole entry): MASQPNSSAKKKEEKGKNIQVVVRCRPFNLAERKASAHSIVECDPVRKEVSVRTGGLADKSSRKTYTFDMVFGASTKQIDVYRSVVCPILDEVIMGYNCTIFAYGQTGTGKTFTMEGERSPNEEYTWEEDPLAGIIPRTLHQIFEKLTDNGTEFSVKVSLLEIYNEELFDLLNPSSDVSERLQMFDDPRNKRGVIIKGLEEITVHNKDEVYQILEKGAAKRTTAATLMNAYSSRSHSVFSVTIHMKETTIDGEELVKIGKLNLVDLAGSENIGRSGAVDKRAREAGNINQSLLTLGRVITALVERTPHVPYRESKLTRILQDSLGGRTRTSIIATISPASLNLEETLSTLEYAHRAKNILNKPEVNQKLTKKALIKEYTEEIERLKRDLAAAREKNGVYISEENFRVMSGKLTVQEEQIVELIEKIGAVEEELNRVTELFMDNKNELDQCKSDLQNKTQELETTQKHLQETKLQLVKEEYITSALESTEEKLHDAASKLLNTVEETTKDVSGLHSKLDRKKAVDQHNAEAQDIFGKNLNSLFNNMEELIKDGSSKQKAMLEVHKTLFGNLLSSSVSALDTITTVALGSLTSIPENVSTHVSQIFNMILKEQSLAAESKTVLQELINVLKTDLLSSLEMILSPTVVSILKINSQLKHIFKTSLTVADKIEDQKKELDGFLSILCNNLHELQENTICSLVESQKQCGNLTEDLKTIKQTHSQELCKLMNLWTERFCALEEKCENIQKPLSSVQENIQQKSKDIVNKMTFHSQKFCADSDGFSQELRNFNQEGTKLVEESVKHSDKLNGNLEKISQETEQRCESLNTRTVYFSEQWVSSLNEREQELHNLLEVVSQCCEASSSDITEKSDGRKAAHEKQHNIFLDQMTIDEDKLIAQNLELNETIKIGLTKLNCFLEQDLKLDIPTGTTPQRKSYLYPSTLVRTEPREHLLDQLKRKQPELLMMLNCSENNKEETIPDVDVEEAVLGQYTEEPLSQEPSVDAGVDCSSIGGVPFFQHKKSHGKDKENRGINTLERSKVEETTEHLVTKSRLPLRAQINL

Aorta [6] = assay: Vasodilating activity in Wistar rat aortic rings assessed as reduction in phenylephrine-induced contractions in presence of Cacl2 in calcium free Krebs medium incubated for 1 hr relative to control; type: functional; design: scale not given: the % may be the effect or the level left
[7] = Cytotoxicity against human MSC assessed as reduction in cell viability incubated for 72 hrs by MTT assay; type: ADME
[8] = target: T2, Voltage-gated L-type calcium channel (Rattus norvegicus, UniProt P22002+Q02485+P27732); assay: Inhibition of L-type calcium channel in Wistar rat aortic rings assessed as reduction in (-)-Bay K8644-induced contractions at 10^-4 M measured after 20 mins; settings: 100 µM
[9] = target: T2, Voltage-gated L-type calcium channel; assay: Inhibition of L-type calcium channel in Wistar rat aortic rings assessed as reduction in (-)-Bay K8644-induced contractions at 10^-5 M measured after 20 mins; settings: 10 µM

| SMILES | IC50 (Aorta [1]) | IC50 (Aorta [3]) | IC50 (MM1.S) | IC50 (A549) | IC50 (HCT-116) | IC50 (MCF7) | inhibition [5] | inhibition (INH) [8] | inhibition (INH) [9] | Emax (Aorta [2]) | Emax (Aorta [4]) | Activity (Aorta [6]) | IC50 [7] |
| --- | --- | --- | --- | --- | --- | --- | --- | --- | --- | --- | --- | --- | --- |
| CCOC(=O)C1=C(C)NC(=S)NC1c1ccc(O)c(OC)c1 (racemic) | 29 µM | 91 µM | > 100 µM | > 100 µM | > 100 µM | > 100 µM | Active | – | – | 78% | 78.3% | – | – |
| CCOC(=O)C1=C(C)NC(=S)NC1c1cccnc1 (racemic) | 46 µM | 52 µM | > 100 µM | > 100 µM | > 100 µM | > 100 µM | – | – | – | 80.9% | 78.4% | – | – |
| CCOC(=O)C1=C(C)NC(=S)NC1c1ccc(O)c([N+](=O)[O-])c1 (racemic) | 26 µM | 38 µM | > 100 µM | > 100 µM | > 100 µM | > 100 µM | – | – | – | 62.4% | 57.1% | – | – |
| CCOC(=O)C1=C(C)NC(=S)NC1c1ccc2cn[nH]c2c1 (racemic) | 42 µM | 36 µM | 63.1 µM | > 100 µM | > 100 µM | > 100 µM | – | – | – | 61.2% | 48.5% | – | > 100 µM |
| CCOC(=O)C1=C(C)NC(=S)NC1c1ccc(OC)c(O)c1 (racemic) | 25 µM | 37 µM | > 100 µM | > 100 µM | > 100 µM | > 100 µM | – | – | – | 88.4% | 77% | – | – |
| COC(=O)C1=C(C)NC(C)=C(C(=O)OC)C1c1ccccc1[N+](=O)[O-] [NIFEDIPINE] | 0.019 µM | 0.0029 µM | 57.9 µM | > 100 µM | > 100 µM | > 100 µM | – | – | – | 75.1% | 98.7% | – | > 100 µM |

Continued by falling IC50 (Aorta [1]), values first:

| IC50 (Aorta [1]) | IC50 (Aorta [3]) | IC50 (MM1.S) | IC50 (A549) | IC50 (HCT-116) | IC50 (MCF7) | inhibition [5] | inhibition (INH) [8] | inhibition (INH) [9] | SMILES | Emax (Aorta [2]) | Emax (Aorta [4]) | Activity (Aorta [6]) | IC50 [7] |
| --- | --- | --- | --- | --- | --- | --- | --- | --- | --- | --- | --- | --- | --- |
| 6.9 µM | 1.2 µM | 8.7 µM | > 100 µM | 9 µM | 73 µM | – | Active | – | CCOC(=O)C1=C(C)NC(=S)NC1c1cccc(O)c1 (racemic) [MONASTROL] | 95.2% | 89.5% | 81.8% | – |
| 5.6 µM | 12 µM | > 100 µM | > 100 µM | > 100 µM | > 100 µM | Active | Active | – | CCOC(=O)C1=C(C)NC(=S)NC1c1ccc2c(c1)OCCO2 (racemic) | 83.3% | 71.7% | 41.8% | > 100 µM |
| 3.2 µM | 16 µM | 96.5 µM | 44.9 µM | 58 µM | 32.2 µM | Active | Active | Active | CCOC(=O)C1=C(C)N=C(S)NC1c1cccc([N+](=O)[O-])c1 (racemic) | 84.9% | 95.4% | 18.1% | > 100 µM |
